# Patent US9700051B2, “Use of squalamine or analogue as a disinfecting agent” (ASSISTANCE PUBLIQUE—HOPITAUX DE MARSEILLE, priority 2012, dated 2017)
# Where two headings read alike, the source gives them in different places.
# Tests used:
# [1] = test system: C. albicans DSM 1386; experiment: In vitro model of nebulizer disinfection with aqueous solution; format: cell-based, Candida albicans; settings: for log reduction for C. albicans: 190 mg/ml; for log reduction in viable cells of C. albicans: 0.5 g/l, 20 minutes; for dose needed to ensure nebulizer disinfection: C. albicans DSM 1386
# Excerpt: (§1) In the different tests below the strains used were Pseudomonas aeruginosa DSM 939 (ATCC 15442), Staphylococcus aureus DSM 799 (ATCC 6538), Candida albicans DSM 1386 (ATCC 10231) and Aspergillus niger ATCC 16404.
# (§2) Nebulizers of Pari LC type were infected with bacteria (S. aureus and P. aeruginosa) via a suspension calibrated at 10^8 cfu/ml, and with fungi (C. albicans and A. niger) via a suspension calibrated at 10^7 cfu/ml. These nebulizers were then disinfected by soaking in a squalamine solution for 20 min, Glutaraldehyde and korsolex (peracetic acid) being used as inhibition control.
# (§3) The microbial contamination of the nebulizer was obtained in vitro by soaking the inner part of the nebulizer (Pari LC, SPRINT SP, Pari, Germany) in a bacterial suspension prepared in Mueller Hinton broth containing 1·10^8 to 5·10^8 cfu/ml of bacteria (NF EN 1040, 1997) for 20 minutes. Disinfection was obtained by soaking this same part in a sterile water solution containing squalamine or ASD 2 for […] at the determined concentration in relation to the bacteria under consideration. For the fungi, suspensions of 1·10^7 to 5·10^7 cfu/ml (NF EN 1275, 1997) were prepared in Sabouraud broth and after incubation the nebulizer was soaked in sterile water containing squalamine or ASD 2. The nebulizer was then rinsed with two successive solutions of sterile water. The bacterial or fungal count was performed on the second wash bath. The counting of bacterial or fungal colonies was conducted on Tryptone Soya Agar for 24 hours for bacterial growth and on malt extract agar-agar for fungi at 37° C. for 48 hours.
# (§4) The bactericidal and fungicidal test was performed three times in independent experiments and each bacterium and mould was evaluated separately. The concentration of squalamine and ASD 2 was increased until the required bactericidal and fungicidal activity was obtained. The disinfection time was set at 20 minutes for the first case and subsequently extended to 6 hours for A. Niger.
# [2] = Cutaneous toxicity on the backs of shaven mice; format: in vivo; settings: concentrations in aqueous solution of 2 000
# Excerpt: Cutaneous toxicity was examined over a period of 15 days by applying a squalamine ointment onto the backs of shaven mice (batch of 10 mice).
# [3] = test system: S. aureus DSM 799; experiment: In vitro model of nebulizer disinfection with aqueous solution; format: cell-based, Staphylococcus aureus; settings: for log reduction for bacteria (S. aureus): 80 mg/ml; for log reduction for bacteria (S. aureus) / log reduction in viable cells of S. aureus: 20 minutes; for log reduction in viable cells of S. aureus: 0.5 g/l; for dose needed to ensure nebulizer disinfection: S. aureus DSM 799
# Excerpt: as §1, §2, §3, §4
# [4] = test system: Candida albicans DSM 1386 (ATCC 10231); experiment: Disinfecting antifungal activity on infected nebulizer as per standard FR-EN 1275; format: cell-based; settings: aqueous solution 0.5 g/l, 1 h
# Description: as §1
# Nebulizer contamination with fungi was obtained in vitro by soaking the inner part of nebulizers (Pari LC, SPRINT SP, Pari, Germany) in 1·10^7 fungi suspension at 5·10^7 cfu/mL prepared in Sabouraud broth. After incubation the nebulizer was soaked in sterile water containing squalamine at the determined concentrations in relation to the fungal strains under consideration (i.e. 0.5 g/L for C. albicans (1 hour soaking) and 2 g/l for A. niger (6 h soaking). The nebulizer was then rinsed with two successive solutions of sterile water. The fungal count was performed on the second wash bath. The count of fungal colonies was performed on malt extract agar-agar (48 h).
# [5] = test system: P. aeruginosa DSM 939; experiment: In vitro model of nebulizer disinfection with aqueous solution; format: cell-based, Pseudomonas aeruginosa; settings: for log reduction for bacteria (P. aeruginosa): 80 mg/ml; for log reduction for bacteria (P. aeruginosa) / log reduction in viable cells of P. aeruginosa: 20 minutes; for log reduction in viable cells of P. aeruginosa: 0.5 g/l; for dose needed to ensure nebulizer disinfection: P. aeruginosa DSM 939
# Excerpt: as §1, §2, §3, §4
# [6] = test system: Pseudomonas aeruginosa DSM 939 (ATCC 15442); experiment: Disinfecting antibacterial action on infected nebulizer as per standard FR-EN 1040; format: cell-based; settings: aqueous solution 0.5 g/l, within 1 hour
# Description: as §1
# (§5) The microbial contamination of nebulizers was obtained in vitro by soaking the inner part of nebulizers (Pari LC, SPRINT SP, Pari, Germany) in a bacterial suspension prepared in Mueller Hinton broth containing 1·10^8 to 5·10^8 cfu/mL of bacteria. Disinfection was performed by soaking this same part in a solution of sterile water containing squalamine for 1 h at a determined concentration of 0.5 g/L for the bacteria under consideration (S. aureus or P. aeruginosa). The nebulizer was then rinsed with two successive sterile water solutions. The bacterial count was performed on the second wash bath on Tryptone Soya Agar (24 h).
# [7] = test system: Staphylococcus aureus DSM 799 (ATCC 6538); experiment: as above; format: cell-based; settings: aqueous solution 0.5 g/l, within 1 hour
# Description: as §1, §5
# [8] = test system: S. aureus DSM 799; experiment: Minimum Inhibitory Concentration (MIC); format: cell-based; settings: Staphylococcus aureus, DSM799
# Excerpt: as §1
# (§6) 4.2.1) The nebulizers used were infected with different bacterial suspensions (S. aureus and P. aeruginosa) calibrated at 10^8 cfu/ml or fungal suspensions (C. albicans and A. niger) calibrated at 10^7 cfu/ml. In a preliminary set of experiments, values of Minimum Inhibitory Concentration (MIC) and Time Kill of squalamine and ASD 2 were determined against chosen reference bacteria and fungi (MIC only). […] A time of 20 minutes was defined to carry out nebulizer disinfection using squalamine whilst korsolex PAA and the 2% solution of glutaraldehyde were used for a time of 15 minutes following the manufacturers' instructions to obtain disinfecting properties. At a first attempt, it was able to be shown that the use of a dose of 80 mg/ml squalamine or ASD-2 for 20 minutes leads to a 2- and 3-log reduction for bacteria whilst a 2-log reduction for C. albicans was only obtained when using a concentration of squalamine or ASD-2 of 190 mg/ml. […] Nonetheless, squalamine and ASD 2 used at a concentration stronger than 0.5 g/l are capable of obtaining a 5-log10 reduction in viable cells of bacteria such as S. aureus, P. aeruginosa and a 4-log10 reduction for fungi such as C. albicans with a cycle of 20 min (FIG. 2A). On the other hand, for A. niger, the concentration enabling a fungicidal effect to be obtained (i.e. not only fungistatic but additionally with spore eradication) was higher than for the bacteria and over a longer time (2 g/l for 6 hours) (FIG. 2B).
# [9] = test system: A. niger ATCC 16404; experiment: Minimum Inhibitory Concentration (MIC); format: cell-based; settings: Aspergillus niger, ATCC16404
# Excerpt: as §1, §6
# [10] = test system: C. albicans DSM 1386; experiment: Minimum Inhibitory Concentration (MIC); format: cell-based; settings: Candida albicans, DSM1386
# Excerpt: as §1, §6
# [11] = test system: P. aeruginosa DSM 939; experiment: Minimum Inhibitory Concentration (MIC); format: cell-based; settings: Pseudomonas aeruginosa, DSM939
# Excerpt: as §1, §6
# [12] = Effect on plastic or metallic material (corrosion)
# [13] = test system: Aspergillus niger ATCC 16404; experiment: Disinfecting antifungal activity on infected nebulizer as per standard FR-EN 1275; format: cell-based; settings: for log reduction of viable spore cells of A. Niger: 2 g/l, 6 hours; for log reduction in viable cells of A. niger: aqueous solution 0.5 g/l, 1 h
# Description: as §1
# Nebulizer contamination with fungi was obtained in vitro by soaking the inner part of nebulizers (Pari LC, SPRINT SP, Pari, Germany) in 1·10^7 fungi suspension at 5·10^7 cfu/mL prepared in Sabouraud broth. After incubation the nebulizer was soaked in sterile water containing squalamine at the determined concentrations in relation to the fungal strains under consideration (i.e. […] The nebulizer was then rinsed with two successive solutions of sterile water. The fungal count was performed on the second wash bath. The count of fungal colonies was performed on malt extract agar-agar (48 h).
# [14] = test system: A. niger ATCC 16404; experiment: In vitro model of nebulizer disinfection with aqueous solution; format: cell-based, Aspergillus niger; settings: for log reduction in viable cells of A. niger: 2 g/l, within 6 hours; for concentration enabling a fungicidal effect (with spore eradication) on A. niger: 6 hours; for dose needed to ensure nebulizer disinfection: A. niger ATCC 16404; for decrease for A. Niger: first attempt, 80 to 190 mg/ml, 20 minutes
# Excerpt: as §1, §2, §3, §4
# [15] = test system: S. aureus; settings: topical lipophilic formulation, 0.5 to 5 mg/ml, 10^6 cfu/ml, cited from earlier work
# [16] = test system: A. niger; settings: in vitro, within 24 hours; cited from earlier work
# [17] = test system: spores of A. Niger; settings: acid glutaraldehyde 0.5%; within 100 minutes; cited from earlier work
SMILES,log reduction for C. albicans [1] [log],log reduction in viable cells of C. albicans [1] [log],dose needed to ensure nebulizer disinfection [1] [mg/L],log reduction for bacteria (S. aureus) [3] [log],log reduction in viable cells of S. aureus [3] [log],dose needed to ensure nebulizer disinfection [3] [mg/L],log reduction in viable cells of C. albicans [4] [log],log reduction for bacteria (P. aeruginosa) [5] [log],log reduction in viable cells of P. aeruginosa [5] [log],dose needed to ensure nebulizer disinfection [5] [mg/L],log reduction of viable cells of P. aeruginosa [6] [log],log reduction of viable cells of S. aureus [7] [log],MIC [8] [µg/mL],MIC [9] [µg/mL],MIC [10] [µg/mL],MIC [11] [µg/mL],log reduction of viable spore cells of A. Niger [13] [log],log reduction in viable cells of A. niger [13] [log],log reduction in viable cells of A. niger [14] [log],concentration enabling a fungicidal effect (with spore eradication) on A. niger [14] [g/L],also measured
CC(C)[C@@H](CC[C@@H](C)[C@H]1CCC2C3C(CC[C@@]21C)[C@@]1(C)CC[C@H](NCCCNCCCCN)CC1C[C@H]3O)OS(=O)(=O)O (stereo partly drawn) [squalamine],2,4,500,2,5,210,6,3,5,130,8,8,2,16,16,4,4,6,4,2,cutaneous toxicity [2]: do not cause cutaneous toxicity; degradation of the equipment treated and/or in contact with the product [12]: do not induce any degradation; log reduction of spores ([13]; aqueous solution of 2 g/l): 4 log; dose needed to ensure nebulizer disinfection [14]: 2000 mg/L; decrease for A. Niger [14]: no significant decrease; log reduction of S. aureus ([15]; within 24 hours): 4 log; log reduction of S. aureus ([15]; within 48 hours): 5 log; log reduction of A. niger [16]: 4 log
CC(C)CCC[C@@H](C)[C@H]1CCC2C3C(CC[C@@]21C)[C@@]1(C)CC[C@H](O)CC1C[C@@H]3NCCCCN (stereo partly drawn) [ASD 2],2,4,500,2,5,210,6,3,5,130,8,8,2,8,8,8,4,6,4,2,dose needed to ensure nebulizer disinfection [14]: 2000 mg/L; decrease for A. Niger [14]: no significant decrease
"O=CCCCC=O [acid glutaraldehyde, glutaraldehyde]",,,,,,,,,,,,,,,,,,,,,log reduction in the number of spores of A. Niger [17]: 1 log
